# Measured values from patent publication US20220144848A1, “SUBSTITUTED OXOPYRIDINE DERIVATIVES” (Bayer Aktiengesellschaft, priority 2018, published 2022).
# pIC50: −log10 of the molar value.
# Key:
# human factor XIa = target: T1, human factor XIa (Homo sapiens, UniProt P03951); assay: Measurement of FXIa inhibition (fluorogenic peptide substrate Boc-Glu(OBzl)-Ala-Arg-AMC); format: biochemical; conditions: factor XIa from Kordia, 15 min preincubation, 30 min at 22° C., fluorescence; some as mean values from multiple determinations
# T1 construct: purchased Kordia
# T1 sequence (P03951 388-625 limits assumed): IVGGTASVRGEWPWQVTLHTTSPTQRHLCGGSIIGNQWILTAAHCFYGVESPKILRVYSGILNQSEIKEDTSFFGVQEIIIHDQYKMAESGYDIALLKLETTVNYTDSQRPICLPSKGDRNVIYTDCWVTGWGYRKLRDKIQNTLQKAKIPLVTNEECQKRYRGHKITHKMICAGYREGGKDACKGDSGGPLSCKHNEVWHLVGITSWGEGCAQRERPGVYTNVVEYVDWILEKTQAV
# T1 sequence (P03951 19-387 partner limits assumed): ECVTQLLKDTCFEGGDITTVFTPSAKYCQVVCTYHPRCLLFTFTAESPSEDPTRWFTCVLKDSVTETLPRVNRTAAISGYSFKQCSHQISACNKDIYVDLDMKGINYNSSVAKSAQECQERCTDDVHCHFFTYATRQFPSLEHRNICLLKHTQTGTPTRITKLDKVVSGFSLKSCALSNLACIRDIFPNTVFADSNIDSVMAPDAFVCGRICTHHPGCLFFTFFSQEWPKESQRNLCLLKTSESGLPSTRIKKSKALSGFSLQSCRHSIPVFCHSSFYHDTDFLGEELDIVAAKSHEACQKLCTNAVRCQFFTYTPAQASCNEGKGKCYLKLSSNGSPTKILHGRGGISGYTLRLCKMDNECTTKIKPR
# Method: (§1) The factor XIa inhibition of the substances according to the invention is determined using a biochemical test system which utilizes the reaction of a peptidic factor XIa substrate to determine the enzymatic activity of human factor XIa. Here, factor XIa cleaves from the peptidic factor XIa substrate the C-terminal aminomethylcoumarin (AMC), the fluorescence of which is measured. The determinations are carried out in microtitre plates.
# Test substances are dissolved in dimethyl sulfoxide and serially diluted in dimethyl sulfoxide (3000 μM to 0.0078 μM; resulting final concentrations in the test: 50 μM to 0.00013 μM). In each case 1 μl of the diluted substance solutions is placed into the wells of white microtitre plates from Greiner (384 wells). 20 μl of assay buffer (50 mM of Tris/HCl pH 7.4; 100 mM of sodium chloride; 5 mM of calcium chloride; 0.1% of bovine serum albumin) and 20 μl of factor XIa from Kordia (0.45 nM in assay buffer) are then added successively. After 15 min of incubation, the enzyme reaction is started by addition of 20 μl of the factor XIa substrate Boc-Glu(OBzl)-Ala-Arg-AMC dissolved in assay buffer (10 μM in assay buffer) from Bachem, the mixture is incubated at room temperature (22° C.) for 30 min and fluorescence is then measured (excitation: 360 nm, emission: 460 nm). The measured emissions of the test batches with test substance are compared to those of control batches without test substance (only dimethyl sulfoxide instead of test substance in dimethyl sulfoxide), and IC50 values are calculated from the concentration/activity relationships.
# human plasma kallikrein = target: T2, human plasma kallikrein (Homo sapiens, UniProt P03952); assay: Determination of the plasma kallikrein activity (fluorogenic peptide substrate H-Pro-Phe-Arg-AMC); format: biochemical; conditions: plasma kallikrein from Kordia, 15 min preincubation, 30 min at 22° C., fluorescence; some as mean values from multiple determinations
# T2 construct: purchased Kordia
# T2 sequence (P03952 391-638 limits assumed): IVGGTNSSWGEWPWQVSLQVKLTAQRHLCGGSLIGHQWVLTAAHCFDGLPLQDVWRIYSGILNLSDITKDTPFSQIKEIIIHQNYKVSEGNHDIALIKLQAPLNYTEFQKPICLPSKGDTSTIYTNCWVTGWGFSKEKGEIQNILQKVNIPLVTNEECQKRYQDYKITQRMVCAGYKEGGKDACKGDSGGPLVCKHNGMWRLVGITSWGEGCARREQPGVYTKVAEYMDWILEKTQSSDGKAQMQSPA
# T2 sequence (P03952 20-390 partner limits assumed): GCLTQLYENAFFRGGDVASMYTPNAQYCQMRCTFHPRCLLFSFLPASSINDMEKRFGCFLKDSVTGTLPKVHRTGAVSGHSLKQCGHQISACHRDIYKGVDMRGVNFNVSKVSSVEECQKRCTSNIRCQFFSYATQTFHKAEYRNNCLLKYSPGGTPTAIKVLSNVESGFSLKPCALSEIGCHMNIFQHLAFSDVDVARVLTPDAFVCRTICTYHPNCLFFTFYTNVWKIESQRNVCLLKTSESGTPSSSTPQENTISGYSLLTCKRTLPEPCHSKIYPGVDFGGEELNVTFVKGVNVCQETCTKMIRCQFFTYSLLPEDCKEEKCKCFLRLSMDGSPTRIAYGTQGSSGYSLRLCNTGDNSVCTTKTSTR
# Method: as §1, with “To determine the plasma kallikrein” for “The factor XIa”, “invention,” for “invention is determined using”, “system is used” for “system”, “plasma kallikrein” for “factor XIa”, “plasma kallikrein.” for “factor XIa.”
# Test substances are dissolved in dimethyl sulfoxide and serially diluted in dimethyl sulfoxide (3000 μM to 0.0078 μM; resulting final concentrations in the test: 50 μM to 0.00013 μM). In each case 1 μl of the diluted substance solutions is placed into the wells of white microtitre plates from Greiner (384 wells). 20 μl of assay buffer (50 mM Tris/HCl pH 7.4; 100 mM sodium chloride solution; 5 mM of calcium chloride solution; 0.1% of bovine serum albumin) and 20 μl of plasma kallikrein from Kordia (0.6 nM in assay buffer) are then added successively. After 15 min of incubation, the enzyme reaction is started by addition of 20 μl of the substrate H-Pro-Phe-Arg-AMC dissolved in assay buffer (10 μM in assay buffer) from Bachem, the mixture is incubated at room temperature (22° C.) for 30 min and fluorescence is then measured (excitation: 360 nm, emission: 460 nm). The measured emissions of the test batches with test substance are compared to those of control batches without test substance (only dimethyl sulfoxide instead of test substance in dimethyl sulfoxide), and IC50 values are calculated from the concentration/activity relationships. Activity data from this test are listed in Table B below (some as mean values from multiple independent individual determinations): […]
SMILES,pIC50 (human factor XIa),pIC50 (human plasma kallikrein)
"CC1Cc2ccc(Cl)cc2-c2cc(=O)n(C(CCOC(C)(C)C)C(=O)Nc3ccc(C(N)=O)c(F)c3)cc2CO1 (mixture of isomers) [Example 21, 4-{[4-tert-Butoxy-2-(11-chloro-7-methyl-2-oxo-7,8-dihydro-2H-[3]benzoxocino[5,6-c]pyridin-3(5H)-yl)butanoyl]amino}-2-fluorobenzamide]",7.20,6.08
"CC1Cc2ccc(Cl)cc2-c2cc(=O)n(C(CCOC(C)(C)C)C(=O)Nc3ccc(C(N)=O)cc3)cc2CO1 (mixture of isomers) [Example 23, 4-{[4-tert-Butoxy-2-(11-chloro-7-methyl-2-oxo-7,8-dihydro-2H-[3]benzoxocino[5,6-c]pyridin-3(5H)-yl)butanoyl]amino}benzamide]",7.66,6.39
"CC[C@@H]1Cc2ccc(Cl)cc2-c2cc(=O)n(C(C[C@@H]3CCCCO3)C(=O)Nc3ccc(C(N)=O)c(F)c3)cc2CO1 (mixture of isomers) [Example 30, 4-{2-[(7R)-11-Chloro-7-ethyl-2-oxo-7,8-dihydro-2H-[3]benzoxocino[5,6-c]pyridin-3(5H)-yl]-3-[(2S)-tetrahydro-2H-pyran-2-yl]propanamido}-2-fluorobenzamide]",7.60,5.89
"NC(=O)c1ccc(NC(=O)C(C[C@@H]2CCCCO2)n2cc3c(cc2=O)-c2cc(Cl)ccc2CC(CO)OC3)cc1F (mixture of isomers) [Example 32, 4-{2-[11-Chloro-7-(hydroxymethyl)-2-oxo-7,8-dihydro-2H-[3]benzoxocino[5,6-c]pyridin-3(5H)-yl]-3-[(2S)-tetrahydro-2H-pyran-2-yl]propanamido}-2-fluorobenzamide]",7.52,5.89
"NC(=O)c1ccc(NC(=O)C(C[C@@H]2COCCO2)n2cc3c(cc2=O)-c2cc(Cl)ccc2CC(CO)OC3)cc1 (mixture of isomers) [Example 36, 4-{2-[11-Chloro-7-(hydroxymethyl)-2-oxo-7,8-dihydro-2H-[3]benzoxocino[5,6-c]pyridin-3(5H)-yl]-3-[(2R)-1,4-dioxan-2-yl]propanamido}benzamide]",7.92,6.00
"CC(C)C1Cc2ccc(Cl)cc2-c2cc(=O)n(C(C[C@@H]3COCCO3)C(=O)Nc3ccc(C(N)=O)c(F)c3)cc2CO1 (mixture of isomers) [Example 40, 4-({2-(11-Chloro-7-isopropyl-2-oxo-7,8-dihydro-2H-[3]benzoxocino[5,6-c]pyridin-3(5H)-yl)-3-[(2R)-1,4-dioxan-2-yl]propanoyl}amino)-2-fluorobenzamide]",7.39,5.32
"CC(C)C1Cc2ccc(Cl)cc2-c2cc(=O)n(C(C[C@@H]3COCCO3)C(=O)Nc3ccc(C(N)=O)cc3)cc2CO1 (mixture of isomers) [Example 42, 4-({2-(11-Chloro-7-isopropyl-2-oxo-7,8-dihydro-2H-[3]benzoxocino[5,6-c]pyridin-3(5H)-yl)-3-[(2R)-1,4-dioxan-2-yl]propanoyl}amino)benzamide]",8.44,6.09
"CC(C)C1Cc2ccc(Cl)cc2-c2cc(=O)n(C(C[C@@H]3COCCO3)C(=O)Nc3ccc4nn(C)nc4c3)cc2CO1 (mixture of isomers) [Example 44, 2-(11-Chloro-7-isopropyl-2-oxo-7,8-dihydro-2H-[3]benzoxocino[5,6-c]pyridin-3(5H)-yl)-3-[(2R)-1,4-dioxan-2-yl]-N-(2-methyl-2H-benzotriazol-5-yl)propanamide]",7.31,5.80
"CC[C@@H](C(=O)Nc1ccc(C(N)=O)c(F)c1)n1cc2c(cc1=O)-c1cc(Cl)ccc1CC(C(F)F)OC2 (mixture of isomers) [Example 46, 4-({(2S)-2-[11-Chloro-7-(difluoromethyl)-2-oxo-7,8-dihydro-2H-[3]benzoxocino[5,6-c]pyridin-3(5H)-yl]butanoyl}amino)-2-fluorobenzamide]",6.96,5.64
"CC(C)[C@@H]1Cc2ccc(Cl)cc2-c2cc(=O)n([C@@H](C[C@@H]3CCCCO3)C(=O)Nc3ccc(C(N)=O)c(F)c3)cc2CO1 (single isomer, unassigned) [Example 39]",–,5.70

# Continued by rising pIC50 (human plasma kallikrein), values first:
pIC50 (human factor XIa),pIC50 (human plasma kallikrein),SMILES
7.85,6.11,"CC1Cc2ccc(Cl)cc2-c2cc(=O)n(C(C[C@@H]3COCCO3)C(=O)Nc3ccc(C(N)=O)c(F)c3)cc2CO1 (mixture of isomers) [Example 7, 4-({2-(11-Chloro-7-methyl-2-oxo-7,8-dihydro-2H-[3]benzoxocino[5,6-c]pyridin-3(5H)-yl)-3-[(2R)-1,4-dioxan-2-yl]propanoyl}amino)-2-fluorobenzamide]"
8.22,6.29,"CC1Cc2ccc(Cl)cc2-c2cc(=O)n(C(C[C@@H]3CCCCO3)C(=O)Nc3ccc(C(N)=O)nc3)cc2CO1 (mixture of isomers) [Example 3, 5-{2-(11-Chloro-7-methyl-2-oxo-7,8-dihydro-2H-[3]benzoxocino[5,6-c]pyridin-3(5H)-yl)-3-[(2S)-tetrahydro-2H-pyran-2-yl]propanamido}pyridine-2-carboxamide]"
8.16,6.31,"NC(=O)c1ccc(NC(=O)C(C[C@@H]2CCCCO2)n2cc3c(cc2=O)-c2cc(Cl)ccc2CC(CO)OC3)cc1 (mixture of isomers) [Example 34, 4-{2-[11-Chloro-7-(hydroxymethyl)-2-oxo-7,8-dihydro-2H-[3]benzoxocino[5,6-c]pyridin-3(5H)-yl]-3-[(2S)-tetrahydro-2H-pyran-2-yl]propanamido}benzamide]"
8.37,6.40,"CC1Cc2ccc(Cl)cc2-c2cc(=O)n(C(C[C@@H]3CCCCO3)C(=O)Nc3ccc(C(N)=O)cc3)cc2CO1 (mixture of isomers) [Example 5, 4-({2-(11-Chloro-7-methyl-2-oxo-7,8-dihydro-2H-[3]benzoxocino[5,6-c]pyridin-3(5H)-yl)-3-[(2S)-tetrahydro-2H-pyran-2-yl]propanoyl}amino)benzamide]"
8.35,6.59,"CC1Cc2ccc(Cl)cc2-c2cc(=O)n(C(C[C@@H]3COCCO3)C(=O)Nc3ccc(C(N)=O)cc3)cc2CO1 (mixture of isomers) [Example 9, 4-({2-(11-Chloro-7-methyl-2-oxo-7,8-dihydro-2H-[3]benzoxocino[5,6-c]pyridin-3(5H)-yl)-3-[(2R)-1,4-dioxan-2-yl]propanoyl}amino)benzamide]"
7.72,6.72,"CC1Cc2ccc(Cl)cc2-c2cc(=O)n(C(C[C@@H]3COCCO3)C(=O)Nc3ccc4nn(C)nc4c3)cc2CO1 (mixture of isomers) [Example 11, 2-(11-Chloro-7-methyl-2-oxo-7,8-dihydro-2H-[3]benzoxocino[5,6-c]pyridin-3(5H)-yl)-3-[(2R)-1,4-dioxan-2-yl]-N-(2-methyl-2H-benzotriazol-5-yl)propanamide]"
8.43,6.85,"C[C@@H]1Cc2ccc(Cl)cc2-c2cc(=O)n(C(C[C@H](C)OC(F)F)C(=O)Nc3ccc(C(N)=O)cc3)cc2CO1 (mixture of isomers) [Example 18, 4-{[(4S)-2-[(7R)-11-Chloro-7-methyl-2-oxo-7,8-dihydro-2H-[3]benzoxocino[5,6-c]pyridin-3(5H)-yl]-4-(difluoromethoxy)pentanoyl]amino}benzamide]"
8.46,6.96,"C[C@@H]1Cc2ccc(Cl)cc2-c2cc(=O)n(C(CCOC(F)F)C(=O)Nc3ccc(C(N)=O)cc3)cc2CO1 (mixture of isomers) [Example 16, 4-{2-[(7R)-11-Chlor-7-methyl-2-oxo-7,8-dihydro-2H-[3]benzoxocino[5,6-c]pyridin-3(5H)-yl]-4-(difluoromethoxy)butanamido}benzamide]"
